Source: patent US20060149062A1, “Sulfanyl substituted phenyl methanones” (priority 2005, published 2006)

Biological target: T1, mGlyT-1b (Mus musculus, UniProt P28571)
T1 construct: expressed in transfected cells; host or cells: Flp-in-CHO (Invitrogen Cat no R758-07), stably transfected
T1 sequence (P28571 1-651 isoform P28571-2): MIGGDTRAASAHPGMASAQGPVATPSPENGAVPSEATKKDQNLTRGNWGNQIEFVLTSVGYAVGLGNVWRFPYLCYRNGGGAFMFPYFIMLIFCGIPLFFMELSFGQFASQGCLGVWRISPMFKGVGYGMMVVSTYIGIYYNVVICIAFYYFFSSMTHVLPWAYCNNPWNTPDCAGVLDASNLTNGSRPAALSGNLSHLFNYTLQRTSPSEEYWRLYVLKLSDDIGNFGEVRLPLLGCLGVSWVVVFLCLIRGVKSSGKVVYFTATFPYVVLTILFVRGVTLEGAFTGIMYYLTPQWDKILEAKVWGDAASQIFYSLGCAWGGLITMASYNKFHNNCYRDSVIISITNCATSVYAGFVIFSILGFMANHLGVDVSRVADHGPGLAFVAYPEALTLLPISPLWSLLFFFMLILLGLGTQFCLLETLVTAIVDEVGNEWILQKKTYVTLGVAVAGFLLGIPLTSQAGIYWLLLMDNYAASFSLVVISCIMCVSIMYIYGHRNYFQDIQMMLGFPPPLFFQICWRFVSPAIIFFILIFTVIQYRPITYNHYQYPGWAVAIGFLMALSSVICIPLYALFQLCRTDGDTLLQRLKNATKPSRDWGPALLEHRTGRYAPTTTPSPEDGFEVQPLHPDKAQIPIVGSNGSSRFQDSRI
Test: Glycine Uptake Inhibition Assay (mGlyT-1b)
Format: cell-based
Details: [3H]-glycine uptake in Flp-in-CHO cells transfected with mGlyT-1b cDNA; read-out: IC50 (μM) at GlyT-1
Protocol: DMEM complete medium: Nutrient mixture F-12 (Gibco Life-technologies), fetal bovine serum (FBS) 5%, (Gibco life technologies), Penicillin/Streptomycin 1% (Gibco life technologies), Hygromycin 0.6 mg/ml (Gibco life technologies), Glutamine 1 mM Gibco life technologies)
Uptake buffer (UB): 150 mM NaCl, 10 mM Hepes-Tris, pH 7.4, 1 mM CaCl2, 2.5 mM KCl, 2.5 mM MgSO4, 10 mM (+) D-glucose.
Flp-in™-CHO (Invitrogen Cat no R758-07) cells stably transfected with mGlyT1b cDNA.
Glycine Uptake Inhibition Assay (mGlyT-1b)
On day 1 mammalian cells, (Flp-in™-CHO), transfected with mGlyT-1b cDNA, were plated at the density of 40,000 cells/well in complete F-12 medium, without hygromycin in 96-well culture plates. On day 2, the medium was aspirated and the cells were washed twice with uptake buffer (UB). The cells were then incubated for 20 min at 22° C. with either (i) no potential competitor, (ii) 10 mM non-radioactive glycine, (iii) a concentration of a potential inhibitor. A range of concentrations of the potential inhibitor was used to generate data for calculating the concentration of inhibitor resulting in 50% of the effect (e.g. IC50, the concentration of the competitor inhibiting glycine uptake of 50%). A solution was then immediately added containing [^3H]-glycine 60 nM (11-16 Ci/mmol) and 25 μM non-radioactive glycine. The plates were incubated with gentle shaking and the reaction was stopped by aspiration of the mixture and washing (three times) with ice-cold UB. The cells were lysed with scintillation liquid, shaken 3 hours and the radioactivity in the cells was counted using a scintillation counter.

Row | IC50 | SMILES
1 | 0.015 µM | CC(=O)c1ccc(N2CCN(C(=O)c3cc(S(C)(=O)=O)ccc3SC(C)C)CC2)c(F)c1 [Example 22, 1-{3-Fluoro-4-[4-(2-isopropylsulfanyl-5-methanesulfonyl-benzoyl)-piperazin-1-yl]-phenyl}-ethanone]
2 | 0.006 µM | CNS(=O)(=O)c1ccc(SC(C)C)c(C(=O)N2CCN(c3ccc(C(F)(F)F)cc3)CC2)c1 [Example 25, 4-Isopropylsulfanyl-N-methyl-3-[4-(4-trifluoromethyl-phenyl)-piperazine-1-carbonyl]-benzenesulfonamide]
3 | 0.018 µM | CC(C)Sc1ccc(S(C)(=O)=O)cc1C(=O)N1CCN(c2ccc([N+](=O)[O-])cc2Cl)CC1 [Example 23, [4-(2-Chloro-4-nitro-phenyl)-piperazin-1-yl]-(2-isopropylsulfanyl-5-methanesulfonyl-phenyl)-methanone]
4 | 0.007 µM | CC(C)Sc1ccc([N+](=O)[O-])cc1C(=O)N1CCN(c2ccc(C(F)(F)F)cc2)CC1 [Example 27, (2-Isopropylsulfanyl-5-nitro-phenyl)-[4-(4-trifluoromethyl-phenyl)-piperazin-1-yl]-methanone]

Continued, compound first:

Row | SMILES | IC50
5 | CC(C)Sc1ccc(S(C)(=O)=O)cc1C(=O)N1CCN(c2ncc(C(F)(F)F)cc2F)CC1 [Example 3, [4-(3-Fluoro-5-trifluoromethyl-pyridin-2-yl)-piperazin-1-yl]-(2-isopropylsulfanyl-5-methanesulfonyl-phenyl)-methanone] | 0.03 µM
6 | CCSc1ccc(S(C)(=O)=O)cc1C(=O)N1CCN(c2ncc(C(F)(F)F)cc2F)CC1 [Example 7, (2-Ethylsulfanyl-5-methanesulfonyl-phenyl)-[4-(3-fluoro-5-trifluoromethyl-pyridin-2-yl)-piperazin-1-yl]-methanone] | 0.08 µM
7 | CS(=O)(=O)c1ccc(N2CCN(C(=O)c3cc(S(C)(=O)=O)ccc3SCC(F)(F)F)CC2)c(F)c1 [Example 14, [4-(2-Fluoro-4-methanesulfonyl-phenyl)-piperazin-1-yl]-[5-methanesulfonyl-2-(2,2,2-trifluoro-ethylsulfanyl)-phenyl]-methanone] | 0.1 µM
8 | CC(C)CSc1ccc(S(C)(=O)=O)cc1C(=O)N1CCN(c2ccc(S(C)(=O)=O)cc2F)CC1 [Example 18, [4-(2-Fluoro-4-methanesulfonyl-phenyl)-piperazin-1-yl]-(2-isobutylsulfanyl-5-methanesulfonyl-phenyl)-methanone] | 0.1 µM
9 | CC(C)Sc1ccc(S(C)(=O)=O)cc1C(=O)N1CCN(c2ccc(S(C)(=O)=O)cc2F)CC1 [Example 6, [4-(2-Fluoro-4-methanesulfonyl-phenyl)-piperazin-1-yl]-(2-isopropylsulfanyl-5-methanesulfonyl-phenyl)-methanone] | 0.04 µM
10 | CS(=O)(=O)c1ccc(SCC(F)(F)F)c(C(=O)N2CCN(c3ncc(C(F)(F)F)cc3F)CC2)c1 [Example 11, [4-(3-Fluoro-5-trifluoromethyl-pyridin-2-yl)-piperazin-1-yl]-[5-methanesulfonyl-2-(2,2,2-trifluoro-ethylsulfanyl)-phenyl]-methanone] | 0.07 µM
